# Columns and labels:
# [1] = test system: Enterococcus faecalis ATCC29212; experiment: MIC determination in broth microdilution assay; details: D: Enterococcus faecalis ATCC29212
# Eschericia coli ESS = experiment: MIC determination in broth microdilution assay; details: for MIC: H: Eschericia coli ESS
# [2] = test system: panel of 10 different non-fastidious bacteria; experiment: Screening against panel of non-fastidious bacteria
# [3] = test system: Staphylococcus aureus ATCC29213; experiment: MIC determination in broth microdilution assay; details: A: Staphylococcus aureus ATCC29213
# [4] = test system: Enterococcus faecium #17501 (vancomycin-resistant clinical isolate); experiment: MIC determination in broth microdilution assay; details: E: Enterococcus faecium #17501 (vancomycin-resistant)
# [5] = test system: Streptococcus pneumoniae #998 (clinical isolate); experiment: MIC determination in broth microdilution assay; details: F: Streptococcus pneumoniae #998
# [6] = test system: Staphylococcus aureus ATCC33591(resistant to methicillin); experiment: MIC determination in broth microdilution assay; details: B: Staphylococcus aureus ATCC33591(resistant to methicillin)
# S.aureus ATCC33591 = details: time-kill curve FIG. 2, S.aureus ATCC33591
# [7] = test system: dihydroorotate dehydrogenase (DHODH); experiment: DHODH assay; format: biochemical; details: at 10 μM
# Method: 100 μl chalcone or 0.1 M Tris-HCl pH 8.0 is added to a well in a 96-wells microtiter plate. Then 50 μl enzyme dilution is added. The microtiter plate is placed in the Powerwavex340 and the enzymatic reactions starts when adding 100 μl assay mixture. The reaction are measured every 20 sec. for 10 min. The samples with chalcones are compared with the samples with 0.1 M Tris-HCl pH 8.0 and the percent inhibition is calculated.
# Enzyme dilution: The solution of recombinant purified enzyme is dissolved in 0.1 M Tris-HCl pH 8 to give an initial velocity of 0.04-0.05 ΔA/min.
# 2,6-dichlorophenolindophenol (DCIP)-stock solution: 40 mg DCIP and 10 ml 99% Ethanol are mixed for 10 min at RT. Then 100 μl 1.0 M Tris-HCl pH 8 and miliQ H2O are added to a final volume of 100 ml. The A600 of the DCIP-stock solution are measured in a microtiter plate on the Powerwavex340 (Bio-Tek instruments,Inc.)
# […]: 25 mM dihydroorotate stock-solution is prepared by first dissolving in the same amount of mol NaOH and then miliQ H2O is added to the final volume.
# Assay mix (10 ml solution): 600 μl of DHODH-stock solution and X ml (depending on the A600 value of stock-solution) DCIP to a final A600=2.5 are mixed. Then 0.1 M Tris-HCl pH 8.0 are added to a final volume of 10 ml.
# Preparation of compound soluton: A 10 mM stock-solution of compound (e.g. a chalcone derivative) is made in dimethylsulfoxid (DMSO). The compound is then diluted in 0.1 M Tris-HCl pH 8 to the test concentrations. The final DMSO concentration in the sample is 10%
# [8] = test system: Bacteroides fragilis, Clostridium perfringens, Clostridium difficele; format: cell-based; details: single concentration of compound (100 μM)
# S.aureus ATCC29213 = details: time-kill curve FIG. 3, S.aureus ATCC29213
# Plasmodium berghei K173 = details: NMRI female mice; for effect on development of the infection: multiple oral administrations, FIG. 7
# [9] = test system: Plasmodium falciparum 3D7; experiment: Plasmodium falciparum assay; format: cell-based; details: Plasmodium falciparum 3D7 (Table 2); read-out: IC50
# Pharmacokinetic studies = format: in vivo, mice; details: for bioavailability: in mice
# Method: Samples of serum were taken at defined timepoints.
# The supernatant was used for the analysis.
# The flow rate was […], injection volume 10 μl.
# [10] = test system: Eschericia coli ATCC25922; experiment: MIC determination in broth microdilution assay
# [11] = Determination of metabolic stability (liver microsomes); format: in vitro ADME; details: rat liver microsomes, 20 μM, 15 min
# Method: Determination of Metabolic Stability
# Incubations were performed with Wistar rat liver microsomes (0.25 mg/ml) in 2% sodium bicarbonate solution. NADP (0.13 mg/ml), glucose-6-phosphate (0.63 mg/ml) and glucose-6-phosphate dehydrogenase (0.38 units/ml) were used as NADPH generation system and UDPGA (0.48 mg/ml) was added to include the phase II reaction, glucuronic acid conjugation, in the assay. After 5 minutes of pre-incubation the reaction was started by addition of the test article to give a final concentration of 20 μM. Samples were incubated for 15 min at 37° C. and the reactions were terminated by addition of equal volumes of acetonitrile. Blank incubations were performed at the same concentration but without addition of microsomes. Both blank and microsome-containing samples were made in replicats of three. Prior to analysis samples were centrifuged for 10 min. at 3500 rpm,HPLC system:
# Initial conditions were 40% mobile phase A (acetonitrile) and 60% mobile phase B (10 mM ammonium acetate pH 9.5). During the first 20 minutes, the mobile phase was changed via a linear gradient to 90% A and 10% B. This was followed by a 5 minutes linear gradient to initial conditions, which were maintained for 5 min. The flow rate was 0.20 m)/min and injection volume 10 μl.
# [12] = test system: panel of six strains Helicobacter pylori; experiment: MIC determination against Helicobacter pylori (agar dilution); details: read-out: MICs against Helicobacter pylori
# [13] = test system: parasitic or bacterial infections; experiment: In vivo potency of chalcones
# [14] = test system: cutaneous and visceral Leishmania infection; details: cited from earlier work
# [15] = Determination of solubility; format: physicochemical; details: reference chalcones
# Method: Determination of Solubility
# Solubility of the compounds was determined by preparing a saturated solution of compound in 0.3 M phosphate buffer (pH 7.4±0.3) in a brown glass tube. The suspensions were rotated slowly for 24 hours. Aliquots were centrifuged for 10 minutes at 14.000 rpm and supernatants were diluted in 40% (v/v) acetonitrile in water prior to HPLC analysis. Concentrations of analytes were quantified against a standard curve and used as term of solubility. The HPLC-UV method used for the assessment of solubility is the same as used in the in vitro metabolism assay.
# P.yoelii and P.berghei = details: cited from earlier work
smiles,measurement,setting,value
"COc1ccc(C(=O)/C=C/c2cc(-c3cc(C)cc(C)c3)ccc2OCCN(C)C)cc1 [Compound C023, (E)-3-[4-(2′-Dimethylamino-ethoxy)-3′,5′-dimethyl-biphenyl-3-yl]-1-(4-methoxy-phenyl)-propenone]",MIC,[1],4.7 µM
same,MIC,Eschericia coli ESS,9.4 µM
same,potency against Gram-positive pathogens in comparison with Licochalcone A,[2],increased potency
same,MIC,[3],4.7 µM
same,MIC,[4],4.7 µM
same,MIC,[5],18.8 µM
same,MIC,[6],4.7 µM
same,MIC,S.aureus ATCC33591,9.4 µM
same,bactericidal action (CFU counts per ml above the MIC),S.aureus ATCC33591,bactericidal
"COc1ccc(C(=O)/C=C/c2cc(-c3cc(C)cc(C)c3)ccc2OCCN(C)C)c(Cl)c1 [Compound C026, (E)-1-(2-Chloro-4-methoxy-phenyl)-3-[4-(2-dimethylamino-ethoxy)-3′,5′-dimethyl-biphenyl-3-yl]-propenone]",Inhibition of DHODH,[7],19%
same,activity against anaerobic bacteria,[8],activity against all microorganisms within the test panel
"COc1ccc(C(=O)/C=C/c2cc(C(C)(C)C)cc(C(C)(C)C)c2OCCN(C)C)c(F)c1 [Compound C028, (E)-3-[3,5-Di-tert-butyl-2-(2-dimethylamino-ethoxy)-phenyl]-1-(2-fluoro-4-methoxy-phenyl)-propenone]",Inhibition of DHODH,[7],23%
same,activity against anaerobic bacteria,[8],activity against all microorganisms within the test panel
"CCN(CC)Cc1ccccc1C(=O)/C=C/c1cc(-c2cc(C)cc(C)c2)ccc1OCCN(C)C [Compound C030, (E)-1-(2-Diethylaminomethyl-phenyl)-3-[4-(2-dimethylamino-ethoxy)-3′,5′-dimethyl-biphenyl-3-yl]-propenone]",potency against Gram-positive pathogens in comparison with Licochalcone A,[2],increased potency
same,MIC,S.aureus ATCC29213,18.8 µM
same,bactericidal action (CFU counts per ml above the MIC),S.aureus ATCC29213,bactericidal
"Cc1ccccc1-c1ccc(OCCN(C)C)c(/C=C/C(=O)c2ccccc2CN(C)C)c1 [Compound C035, (E)-3-[4-(2-Dimethylamino-ethoxy)-2′-methyl-biphenyl-3-yl]-1-(2-dimethylaminomethyl-phenyl)-propenone]",effect on parasitaemia,"Plasmodium berghei K173; multiple intra venous administrations, FIG. 6",significant decrease in the parasitaemia
same,IC50,[9],100 nM
"COc1ccc(C(=O)/C=C/c2cccc(OCCN(C)C)c2)c(OC)c1OC [Compound C043, (E)-3-[3-(2-Dimethylamino-ethoxy)-phenyl]-1-(2,3,4-trimethoxy-phenyl)-propenone]",bioavailability,Pharmacokinetic studies,42%
"Cc1cc(C)cc(-c2ccc(OCCN(C)C)c(/C=C/C(=O)c3ccccc3NCCN(C)C)c2)c1 [Compound C074, (E)-3-[4-(2-Dimethylamino-ethoxy)-3′,5′-dimethyl-biphenyl-3-yl]-1-[2-(2-dimethylamino-ethylamino)-phenyl]-propenone]",MIC,[1],9.4 µM
same,activity against ESS strain of E.coli,Eschericia coli ESS,high activity
same,MIC,Eschericia coli ESS,4.7 µM
same,MIC,[3],9.4 µM
same,activity against E coli ATCC25922,[10],high activity
same,MIC,[10]; G: Eschericia coli ATCC25922,9.4 µM
same,MIC,[4],9.4 µM
same,Metabolic turn-over in vitro,[11],7%
same,activity against anaerobic bacteria,[8],activity against all microorganisms within the test panel
same,MIC,[6],9.4 µM
"CC(=O)Nc1cccc(C(=O)/C=C/c2cc(-c3cc(C)cc(C)c3)ccc2OCCN(C)C)c1 [Compound C088, N-(3-{3-[4-(2-Dimethylamino-ethoxy)-3′,5′-dimethyl-biphenyl-3-yl]-(E)-acryloyl}-phenyl)-acetamide]",MIC,[12],12 to 25 µM
"COc1ccc(C(=O)/C=C/c2cc(-c3ccccc3C)ccc2OCCN(C)C)c(CN(C)C)c1 [Compound C114, (E)-3-[4-(2-Dimethylamino-ethoxy)-2′-methyl-biphenyl-3-yl]-1-(2-imethylaminomethyl-4-methoxy-phenyl)-propenone]",effect on development of the infection,Plasmodium berghei K173,inhibit the development of the infection
"Cc1ccccc1-c1ccc(OCCN(C)C)c(/C=C/C(=O)c2ccccc2CN2CCCC2)c1 [Compound C119, (E)-3-[4-(2-Dimethylamino-ethoxy)-2′-methyl-biphenyl-3-yl]-1-(2-pyrrolidin-1-ylmethyl-phenyl)-propenone]",effect on development of the infection,Plasmodium berghei K173,inhibit the development of the infection
"CN(C)CCOc1ccc(-c2ccccc2Cl)cc1/C=C/C(=O)c1ccccc1CN(C)C [Compound C128, (E)-3-[2′-Chloro-4-(2-dimethylamino-ethoxy)-biphenyl-3-yl]-1-(2-dimethylaminomethyl-phenyl)-propenone]",effect on development of the infection,Plasmodium berghei K173,inhibit the development of the infection
"C=CC(C)(C)c1cc(/C=C/C(=O)c2ccc(O)cc2)c(OC)cc1O [LicA, Licochalcone A]",in vivo potency,[13],50 mg/kg
same,MIC,[1],37.5 µM
same,MIC,Eschericia coli ESS,300.0 µM
same,bactericidal activity against common pathogenic Gram-positive non-fastidious bacteria,[2]; Gram-positive bacteria,moderate bactericidal activity
same,activity against Eschericia coli,[2]; prototype pathogenic Gram-negative bacterium,modest or no activity
same,MIC,[3],37.5 µM
same,MIC,[4],37.5 µM
same,bioavailability,Pharmacokinetic studies,< 6%
same,t1/2 in vivo,Pharmacokinetic studies; in vivo,10 min
same,efficacy in experimental animal models,[14],efficacy in experimental animal models of cutaneous and visceral Leishmania infection
same,Inhibition of DHODH,[7],25%
same,aqueous solubility,[15],approximately 0.01 mg/ml
same,MIC,[5],75.0 µM
same,protection of mice from infection,P.yoelii and P.berghei,protects mice from infection with P.yoelii and P.berghei
same,Metabolic turn-over in vitro,[11],100%
same,Metabolic turn-over in vitro,[11]; listed as Lica,100%
same,MIC,[6],37.5 µM

# — patent US7423181B2, “Aminoalkoxy-functional chalcones” (Lica Pharmaceuticals A/S, priority 2002, dated 2008)
